Laboratory results taken from ChEMBL document CHEMBL1201862, “PubChem BioAssay data set” (2004).
Several values for one entry are separate records, joined by “and”; a condition that tells them apart may be missing. Equal entries are not always repeated. Activity calls are given as the source filed them. For most assays here, no stated cut-off is given here; in the data, actives have a measured EC50 and inactives only a lower limit.

Assays:
Cytochrome P450 3A4 = Cytochrome P450 3A4 (Homo sapiens, UniProt P08684);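 further: CYP3A4 tested as one member of a cytochrome P450 panel screen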
Cytochrome P450 3A4, sequence (P08684 whole entry): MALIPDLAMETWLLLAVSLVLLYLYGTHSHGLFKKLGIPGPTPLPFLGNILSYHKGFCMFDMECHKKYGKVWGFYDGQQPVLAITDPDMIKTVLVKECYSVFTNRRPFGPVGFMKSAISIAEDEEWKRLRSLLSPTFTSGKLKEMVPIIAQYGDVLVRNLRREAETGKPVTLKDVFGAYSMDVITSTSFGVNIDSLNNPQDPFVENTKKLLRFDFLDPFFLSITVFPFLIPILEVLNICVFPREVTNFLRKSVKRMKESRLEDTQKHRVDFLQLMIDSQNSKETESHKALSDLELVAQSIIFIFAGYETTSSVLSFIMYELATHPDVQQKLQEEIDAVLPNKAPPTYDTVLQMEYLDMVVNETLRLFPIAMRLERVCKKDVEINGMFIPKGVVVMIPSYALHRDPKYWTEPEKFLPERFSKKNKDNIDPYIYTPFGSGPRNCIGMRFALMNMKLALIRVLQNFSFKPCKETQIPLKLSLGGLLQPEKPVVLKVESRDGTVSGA

[1] = viability of uninfected HEp-2 cells – cell-based, HTS, cytotoxicity control for RSV inhibitor project, dose response (AID 2410); assay type: functional; details: human respiratory syncytial virus
[2] = Trypanosoma cruzi growth suppression in host cells – NIH3T3 host cells, beta-gal luminescence, confirmation (AID 2044); assay type: functional, cell-based;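 further: intracellular parasites grown in NIH/3T3 mouse fibroblasts as host cells; luminescent beta-galactosidase reporter signal from transgenic T. cruzi replicating inside host cells; inhibitors lower the luminescence signal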
[3] = NIH3T3 cell viability loss – ATP luminescence, mouse fibroblasts, counter-screen, dose response (AID 2010); assay type: functional, cell-based;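 further: cells exposed to compound for about 90 hours before reading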
Paired box protein Pax-8 = Paired box protein Pax-8 (Homo sapiens, UniProt Q06710); assay: PAX8 transcriptional activity inhibition in RMG-I – RMG-I cells, luciferase, cherry-pick, dose response (AID 687027); assay type: functional, cell-based;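 further: luciferase reporter driven by Pax8 target thyroperoxidase promoter measured by SteadyGlo luminescence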
Paired box protein Pax-8, sequence (Q06710 whole entry): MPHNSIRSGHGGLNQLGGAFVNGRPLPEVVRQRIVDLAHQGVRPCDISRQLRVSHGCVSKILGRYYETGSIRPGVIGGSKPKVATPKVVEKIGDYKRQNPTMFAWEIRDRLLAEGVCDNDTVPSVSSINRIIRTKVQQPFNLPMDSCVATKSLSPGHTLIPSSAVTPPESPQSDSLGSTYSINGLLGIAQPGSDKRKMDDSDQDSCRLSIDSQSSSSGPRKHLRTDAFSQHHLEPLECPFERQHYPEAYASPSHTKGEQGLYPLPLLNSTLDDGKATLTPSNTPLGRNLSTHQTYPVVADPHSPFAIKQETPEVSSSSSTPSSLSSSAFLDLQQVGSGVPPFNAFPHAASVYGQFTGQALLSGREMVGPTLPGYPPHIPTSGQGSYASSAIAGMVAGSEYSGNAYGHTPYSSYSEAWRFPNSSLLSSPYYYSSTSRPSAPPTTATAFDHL

[4] = Luminescence Cell-Based Dose Retest to Confirm Inhibitors of Cancer Stem Cells. [Related pubchem assays (depositor defined):AID2717, AID2721]; assay type: functional; details: Homo sapiens
[5] = test system: Streptococcus sp. 'group A'; assay: Streptococcus pyogenes SK(-)GAS viability under kanamycin – luminescence, BacTiterGlo, confirmation, counter-screen for streptokinase expression inhibitor project, dose response (AID 1900); assay type: functional, organism-based
Streptococcus = assay: GAS UMAA2166 growth inhibition – luminescence, BacTiterGlo, counter-screen for streptokinase expression inhibitor project, dose response (AID 1915); assay type: functional, organism-based;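 further: potency for reduction of bacterial viability or growth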
Streptokinase A = target: T1, Streptokinase A (Streptococcus pyogenes serotype M1, UniProt P10520); assay: viability-normalized secreted streptokinase activity reduction – plasminogen activation absorbance, OD405, dose response (AID 1914); assay type: functional, Streptococcus pyogenes M1 GAS;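 further: secreted streptokinase activity via plasminogen activation per viability signal from cell pellet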
T1 sequence (P10520 whole entry): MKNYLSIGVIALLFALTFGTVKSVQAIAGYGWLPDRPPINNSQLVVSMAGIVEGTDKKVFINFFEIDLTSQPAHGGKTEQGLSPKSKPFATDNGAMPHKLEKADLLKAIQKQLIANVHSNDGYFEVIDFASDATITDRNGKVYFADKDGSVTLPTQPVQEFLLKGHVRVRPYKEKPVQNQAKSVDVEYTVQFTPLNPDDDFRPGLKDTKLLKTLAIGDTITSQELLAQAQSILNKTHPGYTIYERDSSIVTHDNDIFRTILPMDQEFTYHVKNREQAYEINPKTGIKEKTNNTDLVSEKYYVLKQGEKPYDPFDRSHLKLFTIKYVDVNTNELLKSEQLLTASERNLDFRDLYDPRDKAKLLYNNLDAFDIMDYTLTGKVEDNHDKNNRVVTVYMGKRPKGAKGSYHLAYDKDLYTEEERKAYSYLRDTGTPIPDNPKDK

COc1ccc(NC(=O)N2CC3(CCN(C(=O)c4ccncc4)CC3)C2)cc1
AC50 (Cytochrome P450 3A4): 15.8 µM (inconclusive)

COc1ccccc1CNc1ccnc(-c2ccccc2Cl)n1
AC50 (Cytochrome P450 3A4): 2.51 µM (inconclusive)

O=C(Nc1ccccc1Cl)c1cccc(COc2cc(Cl)ccc2Cl)c1
CC50 [1]: > 50 µM (active)

COc1cccc2cc(-c3csc(CCn4nc(C)cc4C)n3)c(=O)oc12
CC50 [1]: 41.8 µM (active)

Nc1ncc2c(n1)-c1cc(Cl)ccc1SC2
EC50 [2]: 1550 nM (active)
EC50 [3]: > 60 µM (not active)

CCCCCn1c(=O)[nH]c2cc(C(=O)NCCCN(C)Cc3ccccc3)ccc2c1=O
EC50 [2]: 911 nM (active)
EC50 [3]: > 60 µM (inconclusive)

Cn1nnnc1Sc1ncnc2scc(-c3cccc4c3sc3ccccc34)c12
AC50 (Paired box protein Pax-8): 3.89 µM (active)
AC50 [4]: 1.25 µM (active)

CC(C)c1ccc(C(=O)NCCCN(C)C)cc1
EC50 [2]: 1270 nM (active)
EC50 [3]: > 60 µM (not active)

O=C(CN1CCCC1)Nc1ccc(NC(=O)Nc2ccccc2)cc1
EC50 [5]: > 150 µM (not active)
EC50 (Streptococcus): > 150 µM (not active)
EC50 (Streptokinase A): > 150 µM (not active)

O=C(NCC1CCCO1)c1ccc([N+](=O)[O-])s1 (stereo not drawn)
EC50 [2]: 728 nM (active)
EC50 [3]: > 30 µM (not active)

CCC1(C)Cc2ccccc2-c2nc(-c3ccccc3)oc(=O)c21 (stereo not drawn)
EC50 [5]: 14 µM (active)
EC50 (Streptococcus): > 150 µM (not active)
EC50 (Streptokinase A): 13.2 µM (active)

Cc1nn(CC(=O)Nc2c(F)c(F)cc(F)c2F)c(=O)c2cccn12
EC50 [5]: > 150 µM (not active)
EC50 (Streptococcus): > 150 µM (not active)
EC50 (Streptokinase A): > 150 µM (not active)

Cc1cccc(NC(=O)c2[nH]cnc2C(=O)N[C@@H](Cc2ccccc2)C(=O)OC(C)(C)C)c1
EC50 [5]: 2.46 µM (active)
EC50 (Streptococcus): 3.87 µM (active)

COc1ccc(-c2nc3cnc(Nc4cccc(OC)c4)nc3n(Cc3cccs3)c2=O)cc1
AC50 (Cytochrome P450 3A4): 6.31 µM (inconclusive)

COc1ccc(/C=N/NC(=O)CCn2cnc(-c3ccccc3)c2-c2ccccc2)cc1OC
AC50 [4]: 0.404 µM (active)

COc1ccc2c(c1)CCC1=C2N=C(S)NC1c1ccc(N(C)C)cc1 (stereo not drawn)
EC50 [2]: 2620 nM (active)
EC50 [3]: > 60 µM (not active)

COC(=O)c1ccc(C(=O)OC)c(NC(=O)CN(C)Cc2cccc(Cl)c2Cl)c1
EC50 [5]: 11.2 µM (active)
EC50 (Streptococcus): > 150 µM (not active)
EC50 (Streptokinase A): 13.9 µM (active)

O=C(Nc1cccc([N+](=O)[O-])c1)C12CC3CC(C1)CC(n1cnc([N+](=O)[O-])n1)(C3)C2
EC50 [2]: 102 nM (active)
EC50 [3]: > 60 µM (not active)

S=C(Nc1ccccc1)Nc1nc2ccccc2n1CCOc1ccc(Br)cc1
AC50 [4]: 11.6 µM (active)

C/C(=N\c1ccc(C)cc1C)c1sc2ccccc2c1O
CC50 [1]: 17.8 µM (active)

COCCNC(=O)CCC1CCN(Cc2ccc(-c3ccccc3)cc2)CC1
EC50 [2]: 1770 nM (active)
EC50 [3]: > 60 µM (not active)

CCOc1ccc(-c2nnc3ccc(SC(C)C)nn23)cc1
EC50 [5]: 2.79 µM (active)
EC50 (Streptococcus): 22.9 µM (active)
EC50 (Streptokinase A): > 150 µM (not active)

COc1ccc(C)cc1NC(=O)CNC(c1ccccc1)c1ccccc1
EC50 [5]: 28.9 µM (active)
EC50 (Streptococcus): 96.1 µM (active)
EC50 (Streptokinase A): > 150 µM (not active)

Cc1cccc(-n2cc(-c3ccccc3)c3c(N4CCOCC4)ncnc32)c1
AC50 [4]: 5.24 µM (active)

CCS(=O)(=O)N1Cc2ccccc2CC1C(=O)Nc1nnc(SCc2c(Cl)cccc2Cl)s1 (stereo not drawn)
AC50 (Paired box protein Pax-8): 34.9 µM (active)

COc1ccc(/N=C2\SC(CC(=O)Nc3ccccc3F)C(=O)N2Cc2ccco2)cc1 (stereo not drawn)
CC50 [1]: 25.1 µM (active)

COc1ccc(N2CCN(C(S)=Nc3cc(C)ccc3C)CC2)cc1
AC50 (Cytochrome P450 3A4): 3.16 µM (inconclusive)

Cc1ccc(CN2CCCC(C(=O)c3sccc3C)C2)o1 (stereo not drawn)
EC50 [2]: 719 nM (active)
EC50 [3]: > 60 µM (not active)

COC(=O)C1=CN(Cc2ccc(OC)c(OC)c2)C=C(C(=O)OC)C1c1cccc(O)c1
EC50 [2]: 311 nM (active)
EC50 [3]: > 60 µM (not active)

Cc1cc(C)c2c(C(C)(C)C)nn(-c3ccccc3)c2n1
EC50 [5]: 15.1 µM (active)
EC50 (Streptococcus): 15.7 µM (active)
EC50 (Streptokinase A): 30.2 µM (active)

COc1ccc(CN2CCc3ccc(NC(=O)c4ccncc4)cc3C2)c(F)c1
EC50 [5]: > 150 µM (not active)
EC50 (Streptococcus): > 150 µM (not active)
EC50 (Streptokinase A): > 150 µM (not active)

Cc1nn2c(N3CCN(C)CC3)cc(C(C)(C)C)nc2c1-c1ccccc1
EC50 [2]: 145 nM (active)
EC50 [3]: 4.77 µM (active)

O=c1c2ccc([N+](=O)[O-])cc2ncn1CCOc1ccc(Cl)cc1
EC50 [2]: 145 nM (active)
EC50 [3]: > 30 µM (not active)

Cc1nnc(SCC2=C(C(=O)O)N3C(=O)C(NC(=O)c4cc(F)c(F)cc4Cl)C3SC2)s1 (stereo not drawn)
EC50 [5]: 0.515 µM (active)
EC50 (Streptococcus): 0.815 µM (active)
EC50 (Streptokinase A): > 150 µM (not active)

CCN(CC)C(=O)N[C@H]1C[C@H]2c3cccc4[nH]cc(c34)C[C@@H]2N(C)C1
AC50 (Cytochrome P450 3A4): 10 µM (inconclusive)

CCC1CCc2sc(C(=O)NC3CCN(Cc4ccccc4)CC3)cc2C1 (stereo not drawn)
EC50 [2]: 480 nM (active)
EC50 [3]: 5.09 µM (active)

CC(=O)NNc1cccc(Cl)n1
AC50 [4]: > 195 µM (inactive)

CC12CCC3c4ccc(O)cc4CCC3C1CCC2=O (stereo not drawn)
CC50 [1]: 29.6 µM (active)

COC(=O)c1cc(=O)n(Cc2cccs2)/c(=N/c2ccccc2)s1
AC50 [4]: 5.15 µM (active)

Cc1ccsc1C1C=C(c2cccc(Br)c2)Nc2ncnn21 (stereo not drawn)
EC50 [5]: 7.49 µM (active)
EC50 (Streptococcus): > 150 µM (not active)
EC50 (Streptokinase A): > 150 µM (not active)

Cc1ccc(CN2CCN(Cc3ccc(-n4cccn4)cc3C)CC2CCO)cc1 (stereo not drawn)
EC50 [2]: 651 nM (active)
EC50 [3]: > 30 µM (not active)

C[C@H](CO)N1C[C@H](C)[C@@H](CN(C)S(=O)(=O)c2ccc(F)cc2)Oc2ccc(NC(=O)Nc3ccc(C(F)(F)F)cc3)cc2C1=O
AC50 [4]: 4.25 µM (active)

COc1ccc(Br)cc1C(=O)Nc1ccccc1N1CCN(C(=O)c2ccccc2)CC1
CC50 [1]: 29 µM (active)
EC50 [2]: 1460 nM (active)
EC50 [3]: > 60 µM (not active)

O=Cc1ccc(Oc2cc(-c3ccccc3)nc(-c3ccccc3)n2)cc1
AC50 [4]: 3.14 µM (active)

CC1=C(C(N)=O)C(c2cccnc2)n2nc(-c3cccc(C)c3)nc2N1 (stereo not drawn)
EC50 [2]: > 60000 nM (not active)
EC50 [3]: > 60 µM (not active)

CCCCn1c(=N)n(CC(=O)C(C)(C)C)c2ccccc21
EC50 [2]: 5540 nM (active)
EC50 [3]: > 60 µM (not active)

CCN(CC(=O)Nc1c(C(=O)OC)[nH]c2ccc(C)cc12)c1ccc2c(c1)OCO2
CC50 [1]: > 50 µM (active)

CON(C)C(=O)c1nnc2c3ccccc3n(S(=O)(=O)c3ccc(C)cc3)c2n1
AC50 (Cytochrome P450 3A4): 3.98 µM (inconclusive) and 3.16 µM (inconclusive)

Cc1ccc(Nc2cc(C)nc(-c3ccccc3O)n2)cc1
CC50 [1]: 14.6 µM (active)

C=CCn1c2ccccc2c2nnc(SCc3nc(O)[nH]c3C(=O)CCCCC(=O)OCC)nc21
CC50 [1]: > 50 µM (active)

Clc1ccc(-c2csc(N/N=C\c3cccnc3)n2)cc1
EC50 [2]: 1840 nM (active)
EC50 [3]: > 60 µM (not active)

O=C(c1cccc(F)c1)N1CCN(c2cc(N3CCCCC3)c(F)cc2[N+](=O)[O-])CC1
CC50 [1]: 22.2 µM (active)

CC(=O)OC[C@@H]1O[C@H](CCO/N=C(\C)CCN2CCCc3nc(C)c(C)cc32)C=C[C@@H]1OC(C)=O
AC50 (Cytochrome P450 3A4): 3.98 µM (inconclusive)

C[C@@H]1CN([C@H](C)CO)C(=O)c2cc(NC(=O)Nc3ccc(C(F)(F)F)cc3)ccc2O[C@@H](C)CCCCO[C@H]1CN(C)Cc1ccccc1
AC50 (Paired box protein Pax-8): 12.2 µM (active)

O=C(/C=C/c1ccccc1)NCCc1ccccc1
EC50 [5]: > 150 µM (not active)
EC50 (Streptococcus): > 150 µM (not active)
EC50 (Streptokinase A): 48.7 µM (active)

Cc1c(Cl)cnc(NC(=O)COC(=O)CCS(=O)(=O)c2ccccc2)c1Cl
AC50 (Cytochrome P450 3A4): 15.8 µM (inconclusive)

CN(C)Cc1c[nH]c2ccccc12 [GRAMINE]
AC50 (Cytochrome P450 3A4): 3.16 µM (inconclusive)

COc1ccccc1-c1c(C)nn2c(N)c(-c3ccccc3)cnc12
CC50 [1]: 24.2 µM (active)

Cc1cc(=O)oc2c3c(cc(OCC(=O)NC4CC4)c12)OC(C)(C)CC3
EC50 [5]: > 150 µM (not active)
EC50 (Streptococcus): > 150 µM (not active)
EC50 (Streptokinase A): > 150 µM (not active)

CC[C@H]1CC2CN3CCc4c([nH]c5c([C@H]6C[C@H]7[C@H](CC)CN(C)[C@@H](Cc8c6[nH]c6ccccc86)[C@H]7C(=O)OC)c(OC)ccc45)C(C(=O)OC)(C2)C13
AC50 [4]: 1.99 µM (active)

CC(C)Oc1ccc(C(=O)Nc2nnc(C3=COCCO3)o2)cc1
EC50 [5]: 0.766 µM (active)
EC50 (Streptococcus): 14.8 µM (active)
EC50 (Streptokinase A): > 150 µM (not active)

CCN(CC(=O)Nc1ccc(S(=O)(=O)N2CCCCC2)cc1)Cc1ccccc1
CC50 [1]: 28 µM (active)
